Data on 22 molecules can be found in patent publication US10344025B2, “GLS1 inhibitors for treating disease” (Board of Regents, The University of Texas System, priority 2014, dated 2019).

Some results are limits rather than exact numbers.

Test [1] has as its target purified recombinant human GAC (GLS1) (Homo sapiens (Human), UniProt O94925). Briefly: GLS1 Enzymatic Activity Assay (dual-coupled enzymatic assay, resorufin/Amplex UltraRed readout).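 Also: glutamate from GAC coupled via glutamate oxidase and peroxidase to resorufin, read as fluorescence (ex 530, em 590 nm) kinetically or at 20 min, four-parameter logistic IC50 fit.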 It counts as biochemical.
The subject of another test is A549 cells. The test can be described thus: Proliferation Assay (A549 viability, Cell Titer Fluor, 72 hours). The test is classed as cell-based. The conditions noted are these: Homo sapiens, A549, 72 h. The procedure, abridged:
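A549 cells seeded at 1000 cells/well, rested 24 h, then exposed to compound in 0.5% DMSO for 72 h at 37 °C. Viability read by Cell Titer Fluor fluorescence; IC50 from four-parameter logistic fit.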

purified recombinant human GAC (GLS1), sequence (O94925 other isoform, or with tags, fused parts or gaps): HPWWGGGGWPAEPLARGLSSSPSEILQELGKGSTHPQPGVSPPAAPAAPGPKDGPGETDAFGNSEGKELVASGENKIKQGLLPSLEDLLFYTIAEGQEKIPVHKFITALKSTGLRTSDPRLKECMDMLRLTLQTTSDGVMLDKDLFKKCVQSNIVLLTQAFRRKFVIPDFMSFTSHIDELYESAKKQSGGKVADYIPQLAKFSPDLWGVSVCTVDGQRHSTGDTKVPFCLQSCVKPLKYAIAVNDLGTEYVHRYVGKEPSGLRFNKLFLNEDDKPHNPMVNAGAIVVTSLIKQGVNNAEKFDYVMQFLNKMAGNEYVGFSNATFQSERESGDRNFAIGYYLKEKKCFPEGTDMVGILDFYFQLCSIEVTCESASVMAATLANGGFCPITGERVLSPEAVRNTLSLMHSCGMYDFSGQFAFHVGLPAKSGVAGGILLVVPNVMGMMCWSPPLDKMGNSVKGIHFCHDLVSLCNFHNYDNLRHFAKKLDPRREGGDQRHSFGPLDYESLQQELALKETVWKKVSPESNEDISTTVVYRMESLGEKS

Take `O=C(NCc1cc(C(F)(F)F)ccn1)c1cn(CC(F)CCc2nnc(C(=O)NCc3cccc(OC(F)(F)F)c3)s2)nn1` (centres unmarked) [Example 446, 5-{3-fluoro-4-[4-({[4-(trifluoromethyl)pyridin-2-yl]methyl}carbamoyl)-1H-1,2,3-triazol-1-yl]butyl}-N-{[3-(trifluoromethoxy)phenyl]methyl}-1,3,4-thiadiazole-2-carboxamide]: in test [1], the IC50 was < 0.1 µM. Further, in the test on A549 cells, the EC50 is < 0.1 µM.
For `Cc1ccc(CNC(=O)c2cn(CC(F)CCc3nnc(C(=O)NCc4cc(OC(F)(F)F)ccc4F)s3)nn2)cn1` (centres unmarked) [Example 447, 5-[3-fluoro-4-(4-{[(6-methylpyridin-3-yl)methyl]carbamoyl}-1H-1,2,3-triazol-1-yl)butyl]-N-{[2-fluoro-5-(trifluoromethoxy)phenyl]methyl}-1,3,4-thiadiazole-2-carboxamide], the IC50 in test [1] was < 0.1 µM. In addition, the EC50 in the test on A549 cells was < 0.1 µM.
Take `O=C(NCc1ccc(C(F)(F)F)cn1)c1cn(CC(F)CCc2nnc(C(=O)NCc3cc(OC(F)(F)F)ccc3F)s2)nn1` (centres unmarked) [Example 448, 5-{3-fluoro-4-[4-({[5-(trifluoromethyl)pyridin-2-yl]methyl}carbamoyl)-1H-1,2,3-triazol-1-yl]butyl}-N-{[2-fluoro-5-(trifluoromethoxy)phenyl]methyl}-1,3,4-thiadiazole-2-carboxamide]: in test [1], the IC50 is < 0.1 µM. Moreover, in the test on A549 cells, the EC50 was < 0.1 µM.
Regarding `O=C(NCc1cc(C(F)(F)F)ccn1)c1cn(CC(F)CCc2nnc(C(=O)NCc3cc(OC(F)(F)F)ccc3F)s2)nn1` (centres unmarked) [Example 449, 5-{3-fluoro-4-[4-({[4-(trifluoromethyl)pyridin-2-yl]methyl}carbamoyl)-1H-1,2,3-triazol-1-yl]butyl}-N-{[2-fluoro-5-(trifluoromethoxy)phenyl]methyl}-1,3,4-thiadiazole-2-carboxamide], the IC50 in test [1] is < 0.1 µM. Moreover, in the test with A549 cells, the EC50 is < 0.1 µM.
Consider `O=C(NCc1cc(C(F)(F)F)ccn1)c1cn(CCC(F)Cn2cc(C(=O)NCc3ccccc3)nn2)nn1` (centres unmarked) [Example 450, N-benzyl-1-{2-fluoro-4-[4-({[4-(trifluoromethyl)pyridin-2-yl]methyl}carbamoyl)-1H-1,2,3-triazol-1-yl]butyl}-1H-1,2,3-triazole-4-carboxamide], for which the IC50 in test [1] was < 0.1 µM. The molecule further had an EC50 in the test on A549 cells of 0.1 to 0.5 µM.
The matching figures for `O=C(NCc1cc(OC(F)(F)F)ccc1F)c1cn(CC(F)CCc2nnc(C(=O)NCc3cc(C(F)(F)F)ccn3)s2)nn1` (centres unmarked) [Example 451, 5-{3-fluoro-4-[4-({[2-fluoro-5-(trifluoromethoxy)phenyl]methyl}carbamoyl)-1H-1,2,3-triazol-1-yl]butyl}-N-{[4-(trifluoromethyl)pyridin-2-yl]methyl}-1,3,4-thiadiazole-2-carboxamide]: < 0.1 µM and < 0.1 µM.
Consider `O=C(NCc1cc(OC(F)(F)F)ccc1F)c1cn(CCC(F)Cn2cc(C(=O)N[C@H](CO)c3ccccc3)nn2)nn1` (stereo partly drawn) [Example 452, 1-{2-fluoro-4-[4-({[2-fluoro-5-(trifluoromethoxy)phenyl]methyl}carbamoyl)-1H-1,2,3-triazol-1-yl]butyl}-N-[(1S)-2-hydroxy-1-phenylethyl]-1H-1,2,3-triazole-4-carboxamide], for which, in test [1], the IC50 is < 0.1 µM. For the same molecule, the EC50 in the test on A549 cells was in the range of 0.1 to 0.5 µM.
The matching figures for `O=C(NCc1cc(OC(F)(F)F)ccc1F)c1cn(CCC(F)Cn2cc(C(=O)N[C@@H](CO)c3ccccc3)nn2)nn1` (stereo partly drawn) [Example 453, 1-{2-fluoro-4-[4-({[2-fluoro-5-(trifluoromethoxy)phenyl]methyl}carbamoyl)-1H-1,2,3-triazol-1-yl]butyl}-N-[(1R)-2-hydroxy-1-phenylethyl]-1H-1,2,3-triazole-4-carboxamide]: < 0.1 µM and 0.1 to 0.5 µM.
Turning to `O=C(NCc1ccccc1F)c1cn(CCC(F)Cn2cc(C(=O)NCc3cc(C(F)(F)F)ccn3)nn2)nn1` (centres unmarked) [Example 454, 1-[2-fluoro-4-(4-{[(2-fluorophenyl)methyl]carbamoyl}-1H-1,2,3-triazol-1-yl)butyl]-N-{[4-(trifluoromethyl)pyridin-2-yl]methyl}-1H-1,2,3-triazole-4-carboxamide], the IC50 in test [1] is < 0.1 µM. This molecule gave a concentration for a half-maximal effect (EC50) in the test with A549 cells of 0.1 to 0.5 µM.
The corresponding values for `O=C(NCc1cccc(C(F)(F)F)c1)c1cn(CCC(F)Cn2cc(C(=O)NCc3cc(C(F)(F)F)ccn3)nn2)nn1` (centres unmarked) [Example 455, 1-{2-fluoro-4-[4-({[3-(trifluoromethyl)phenyl]methyl}carbamoyl)-1H-1,2,3-triazol-1-yl]butyl}-N-{[4-(trifluoromethyl)pyridin-2-yl]methyl}-1H-1,2,3-triazole-4-carboxamide] are < 0.1 µM and < 0.1 µM.
The matching figures for `O=C(NCC1CCCCC1)c1cn(CCC(F)Cn2cc(C(=O)NCc3cc(C(F)(F)F)ccn3)nn2)nn1` (centres unmarked) [Example 456, 1-(4-{4-[(cyclohexylmethyl)carbamoyl]-1H-1,2,3-triazol-1-yl}-2-fluorobutyl)-N-{[4-(trifluoromethyl)pyridin-2-yl]methyl}-1H-1,2,3-triazole-4-carboxamide]: < 0.1 µM and < 0.1 µM.
The matching figures for `O=C(NCC1CCOCC1)c1cn(CCC(F)Cn2cc(C(=O)NCc3cc(C(F)(F)F)ccn3)nn2)nn1` (centres unmarked) [Example 457, 1-(2-fluoro-4-{4-[(oxan-4-ylmethyl)carbamoyl]-1H-1,2,3-triazol-1-yl}butyl)-N-{[4-(trifluoromethyl)pyridin-2-yl]methyl}-1H-1,2,3-triazole-4-carboxamide]: 0.5 to 5 µM and 0.5 to 5 µM.
As for `C[C@H](NC(=O)c1cn(CCC(F)Cn2cc(C(=O)NCc3cc(C(F)(F)F)ccn3)nn2)nn1)c1ccccc1` (stereo partly drawn) [Example 458, 1-[2-fluoro-4-(4-{[(1S)-1-phenylethyl]carbamoyl}-1H-1,2,3-triazol-1-yl)butyl]-N-{[4-(trifluoromethyl)pyridin-2-yl]methyl}-1H-1,2,3-triazole-4-carboxamide], the IC50 in test [1] lay within 0.1 to 0.5 µM. For the same molecule, the EC50 in the test with A549 cells fell in the range of 0.1 to 0.5 µM.
For `O=C(NCc1ccc(F)cc1)c1cn(CCC(F)Cn2cc(C(=O)NCc3cc(C(F)(F)F)ccn3)nn2)nn1` (centres unmarked) [Example 459, 1-[2-fluoro-4-(4-{[(4-fluorophenyl)methyl]carbamoyl}-1H-1,2,3-triazol-1-yl)butyl]-N-{[4-(trifluoromethyl)pyridin-2-yl]methyl}-1H-1,2,3-triazole-4-carboxamide], the IC50 in test [1] was < 0.1 µM. The EC50 in the test with A549 cells was 0.1 to 0.5 µM.
The matching figures for `O=C(NCc1ccccc1)c1cn(CCC(F)Cn2cc(C(=O)NCc3cc(C(F)(F)F)ccn3)nn2)nn1` (centres unmarked) [Example 460, 1-{4-[4-(benzylcarbamoyl)-1H-1,2,3-triazol-1-yl]-2-fluorobutyl}-N-{[4-(trifluoromethyl)pyridin-2-yl]methyl}-1H-1,2,3-triazole-4-carboxamide]: 0.1 to 0.5 µM and 0.1 to 0.5 µM.
The corresponding values for `O=C(NCc1cccc(OC(F)(F)F)c1)c1cn(CCC(F)Cn2cc(C(=O)N[C@@H](CO)c3ccccc3)nn2)nn1` (stereo partly drawn) [Example 461, 1-{2-fluoro-4-[4-({[3-(trifluoromethoxy)phenyl]methyl}carbamoyl)-1H-1,2,3-triazol-1-yl]butyl}-N-[(1R)-2-hydroxy-1-phenylethyl]-1H-1,2,3-triazole-4-carboxamide] are 0.1 to 0.5 µM and 0.5 to 5 µM.
The matching figures for `O=C(NCc1cccc(OC(F)(F)F)c1)c1cn(CCC(F)Cn2cc(C(=O)N[C@H](CO)c3ccccc3)nn2)nn1` (stereo partly drawn) [Example 462, 1-{2-fluoro-4-[4-({[3-(trifluoromethoxy)phenyl]methyl}carbamoyl)-1H-1,2,3-triazol-1-yl]butyl}-N-[(1S)-2-hydroxy-1-phenylethyl]-1H-1,2,3-triazole-4-carboxamide]: < 0.1 µM and 0.1 to 0.5 µM.
As to `O=C(NCc1cccc(OC(F)(F)F)c1)c1cn(CC(F)CCc2nnc(C(=O)NCc3cc(C(F)(F)F)ccn3)s2)nn1` (centres unmarked) [Example 463, 5-{3-fluoro-4-[4-({[3-(trifluoromethoxy)phenyl]methyl}carbamoyl)-1H-1,2,3-triazol-1-yl]butyl}-N-{[4-(trifluoromethyl)pyridin-2-yl]methyl}-1,3,4-thiadiazole-2-carboxamide], in test [1], the IC50 was < 0.1 µM. Further, in the test with A549 cells, the EC50 was < 0.1 µM.
On to `O=C(NCc1cccc(OC(F)(F)F)c1)c1cn(CC(F)CCc2nnc(C(=O)NCc3ccc(C(F)(F)F)cn3)s2)nn1` (centres unmarked) [Example 464, 5-{3-fluoro-4-[4-({[3-(trifluoromethoxy)phenyl]methyl}carbamoyl)-1H-1,2,3-triazol-1-yl]butyl}-N-{[5-(trifluoromethyl)pyridin-2-yl]methyl}-1,3,4-thiadiazole-2-carboxamide], for which, in test [1], the IC50 was < 0.1 µM. In the test on A549 cells, the EC50 was < 0.1 µM.
For the molecule `O=C(NCc1cc(OC(F)(F)F)ccc1F)c1cn(CC(F)CCc2nnc(C(=O)NCc3ccc(C(F)(F)F)cn3)s2)nn1` (centres unmarked) [Example 465, 5-{3-fluoro-4-[4-({[2-fluoro-5-(trifluoromethoxy)phenyl]methyl}carbamoyl)-1H-1,2,3-triazol-1-yl]butyl}-N-{[5-(trifluoromethyl)pyridin-2-yl]methyl}-1,3,4-thiadiazole-2-carboxamide], the IC50 in test [1] was < 0.1 µM. For the same molecule, the EC50 in the test with A549 cells was < 0.1 µM.
In the case of `O=C(NCc1cccc(F)c1)c1cn(CCC(F)Cn2cc(C(=O)NCc3cc(C(F)(F)F)ccn3)nn2)nn1` (centres unmarked) [Example 466, 1-[2-fluoro-4-(4-{[(3-fluorophenyl)methyl]carbamoyl}-1H-1,2,3-triazol-1-yl)butyl]-N-{[4-(trifluoromethyl)pyridin-2-yl]methyl}-1H-1,2,3-triazole-4-carboxamide], the half-maximal inhibitory concentration (IC50) in test [1] was < 0.1 µM. Moreover, the EC50 with A549 cells was < 0.1 µM.
Consider `O=C(NCc1cc(C(F)(F)F)ccn1)c1cn(CC(F)CCn2cc(C(=O)N[C@@H](CO)c3ccccc3)nn2)nn1` (stereo partly drawn) [Example 467, 1-[2-fluoro-4-(4-{[(1R)-2-hydroxy-1-phenylethyl]carbamoyl}-1H-1,2,3-triazol-1-yl)butyl]-N-{[4-(trifluoromethyl)pyridin-2-yl]methyl}-1H-1,2,3-triazole-4-carboxamide], for which the IC50 in test [1] was 0.1 to 0.5 µM. In the test with A549 cells, this molecule yielded an EC50 of 0.1 to 0.5 µM.
